Measured values taken from article PMC7241567 (Journal of Enzyme Inhibition and Medicinal Chemistry, 2020).

Legend:
Type in all cases: biochemical
AKT1 = target: T1, AKT1 (Homo sapiens, UniProt P31749); test: Reaction Biology Kinase HotSpot radiometric kinase assay
T1 construct: purchased Reaction Biology Corp. (Kinase HotSpot service)

ALK = target: T2, ALK (Homo sapiens, UniProt Q9UM73); test: as above
T2 construct: purchased Reaction Biology Corp. (Kinase HotSpot service)

AXL (R499C) = target: T3, AXL (R499C) (Homo sapiens, UniProt P30530, R499C); test: as above
T3 construct: purchased Reaction Biology Corp. (Kinase HotSpot service)

BTK = target: T4, BTK (Homo sapiens, UniProt Q06187); test: as above
T4 construct: purchased Reaction Biology Corp. (Kinase HotSpot service)

c-Src = target: T5, c-Src (Homo sapiens, UniProt P12931); test: as above
T5 construct: purchased Reaction Biology Corp. (Kinase HotSpot service)

CDK4/cyclin D1 = target: T6, CDK4/cyclin D1 (Homo sapiens, UniProt P11802); test: as above
T6 construct: purchased Reaction Biology Corp. (Kinase HotSpot service)

ERK1 = target: T7, ERK1 (Homo sapiens, UniProt P27361); test: as above; conditions: 10 µM
T7 construct: purchased Reaction Biology Corp. (Kinase HotSpot service)

FMS = target: T8, FMS (Homo sapiens, UniProt P07333); test: as above
T8 construct: purchased Reaction Biology Corp. (Kinase HotSpot service)

FYN = target: T9, FYN (Homo sapiens, UniProt P06241); test: as above
T9 construct: purchased Reaction Biology Corp. (Kinase HotSpot service)

GSK3b = target: T10, GSK3b (Homo sapiens, UniProt P49841); test: as above
T10 construct: purchased Reaction Biology Corp. (Kinase HotSpot service)

JAK3 = target: T11, JAK3 (Homo sapiens, UniProt P52333); test: as above
T11 construct: purchased Reaction Biology Corp. (Kinase HotSpot service)

JNK3 = target: T12, JNK3 (Homo sapiens, UniProt P53779); test: as above
T12 construct: purchased Reaction Biology Corp. (Kinase HotSpot service)

KDR/VEGFR2 = target: T13, KDR/VEGFR2 (Homo sapiens, UniProt P35968); test: as above
T13 construct: purchased Reaction Biology Corp. (Kinase HotSpot service)

LCK = target: T14, LCK (Homo sapiens, UniProt P06239); test: as above
T14 construct: purchased Reaction Biology Corp. (Kinase HotSpot service)

MEK1 = target: T15, MEK1 (Homo sapiens, UniProt Q02750); test: as above
T15 construct: purchased Reaction Biology Corp. (Kinase HotSpot service)

PKA = target: T16, PKA (Homo sapiens, UniProt P17612); test: as above
T16 construct: purchased Reaction Biology Corp. (Kinase HotSpot service)

RIPK3 = target: T17, RIPK3 (Homo sapiens, UniProt Q9Y572); test: as above; conditions: 10 µM
T17 construct: purchased Reaction Biology Corp. (Kinase HotSpot service)

RON/MST1R = target: T18, RON/MST1R (Homo sapiens, UniProt Q04912); test: as above
T18 construct: purchased Reaction Biology Corp. (Kinase HotSpot service)

ROS/ROS1 = target: T19, ROS/ROS1 (Homo sapiens, UniProt P08922); test: as above
T19 construct: purchased Reaction Biology Corp. (Kinase HotSpot service)

FLT3 (F594_R595 ins R) = target: T20, FLT3 (F594_R595 ins R) (Homo sapiens, UniProt P36888, INS594R); test: Enzymatic activity against FLT3 mutants
T20 construct: purchased Reaction Biology Corp. (Kinase HotSpot service)

FLT3 (F594_R595 ins EY) = FLT3 (F594_R595 ins EY) (Homo sapiens, UniProt P36888); test: Enzymatic activity against FLT3 mutants
[1] = test system: other kinases including FMS and cKit; test: Kinase panel screening, overall selectivity; conditions: 36 different kinases, single dose of 10 µM
Method: Next, we investigated kinase panel screening of 7d and 7b over 36 different kinases at a single dose of 10 µM (Figure 5). […] High selectivity over cKit might be an opportunity to avoid myelosuppression toxicity, which was reported from a dual FLT3/cKit inhibitor[19–22]. It is a valuable result to secure such a kinase selectivity profile considering the similarities of the same type III receptor tyrosine kinase (FMS, cKit and FLT3).
3. Evaluation of IC50 and Selected Kinase Profiling
We used Reaction Biology Corp. Kinase HotSpotSM service (www.reactionbiology.com) for IC50 determination of all compounds and kinase profile. Assay protocol: In a final reaction volume of 25 μL, Peptide substrate, [[…]], 5 µM, ATP 10 µM, FLT3(h) (5-10 […]
mU) is incubated with 25 mM Tris pH 7.5, 0.02 mM EGTA, 0.66 mg/mL myelin basic protein, 10 mM Mg Acetate and [γ-33P-ATP] (specific activity approx. 500 cpm/pmol, concentration as required). The reaction is initiated by the addition of the Mg-ATP mix. After incubation for 40 minutes at room temperature, the reaction is stopped by the addition of 5 μL of a 3% phosphoric acid solution. 10 μL of the reaction is then spotted onto a P30 filtermat and washed three times for 5 minutes in 75 mM phosphoric acid and once in methanol prior to drying and […]

T15 sequence (Q02750 whole entry): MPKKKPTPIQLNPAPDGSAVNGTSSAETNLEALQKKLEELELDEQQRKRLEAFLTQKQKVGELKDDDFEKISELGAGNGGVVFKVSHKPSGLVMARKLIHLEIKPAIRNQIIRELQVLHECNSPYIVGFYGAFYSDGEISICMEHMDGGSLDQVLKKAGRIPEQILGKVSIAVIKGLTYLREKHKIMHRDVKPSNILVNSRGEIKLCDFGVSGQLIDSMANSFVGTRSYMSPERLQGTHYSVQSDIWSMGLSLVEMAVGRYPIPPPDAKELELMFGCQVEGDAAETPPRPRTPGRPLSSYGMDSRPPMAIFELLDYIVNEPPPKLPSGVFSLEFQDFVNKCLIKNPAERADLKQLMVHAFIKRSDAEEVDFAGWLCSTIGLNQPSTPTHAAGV
T1 sequence (P31749 whole entry): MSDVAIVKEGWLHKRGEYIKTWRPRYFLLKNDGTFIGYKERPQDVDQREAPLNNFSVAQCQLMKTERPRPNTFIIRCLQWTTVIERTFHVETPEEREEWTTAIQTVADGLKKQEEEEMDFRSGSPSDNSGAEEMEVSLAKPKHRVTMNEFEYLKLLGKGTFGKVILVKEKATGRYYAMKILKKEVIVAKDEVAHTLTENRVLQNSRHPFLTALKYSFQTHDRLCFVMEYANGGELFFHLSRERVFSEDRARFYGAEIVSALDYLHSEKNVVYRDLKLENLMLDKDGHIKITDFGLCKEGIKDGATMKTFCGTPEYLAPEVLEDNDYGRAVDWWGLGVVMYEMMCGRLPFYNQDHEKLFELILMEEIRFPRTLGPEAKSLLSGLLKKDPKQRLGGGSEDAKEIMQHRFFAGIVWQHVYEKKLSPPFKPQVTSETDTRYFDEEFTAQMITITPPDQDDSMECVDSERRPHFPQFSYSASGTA
T7 sequence (P27361 whole entry): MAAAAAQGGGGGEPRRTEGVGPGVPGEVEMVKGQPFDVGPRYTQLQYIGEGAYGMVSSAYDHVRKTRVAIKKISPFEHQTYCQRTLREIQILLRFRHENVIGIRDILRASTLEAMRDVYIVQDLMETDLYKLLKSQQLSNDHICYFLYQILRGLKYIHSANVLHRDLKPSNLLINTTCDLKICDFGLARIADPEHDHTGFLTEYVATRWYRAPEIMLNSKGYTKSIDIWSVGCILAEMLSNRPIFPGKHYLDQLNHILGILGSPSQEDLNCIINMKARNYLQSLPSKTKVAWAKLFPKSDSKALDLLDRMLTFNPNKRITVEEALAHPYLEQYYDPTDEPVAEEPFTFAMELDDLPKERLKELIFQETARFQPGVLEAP
T11 sequence (P52333 whole entry): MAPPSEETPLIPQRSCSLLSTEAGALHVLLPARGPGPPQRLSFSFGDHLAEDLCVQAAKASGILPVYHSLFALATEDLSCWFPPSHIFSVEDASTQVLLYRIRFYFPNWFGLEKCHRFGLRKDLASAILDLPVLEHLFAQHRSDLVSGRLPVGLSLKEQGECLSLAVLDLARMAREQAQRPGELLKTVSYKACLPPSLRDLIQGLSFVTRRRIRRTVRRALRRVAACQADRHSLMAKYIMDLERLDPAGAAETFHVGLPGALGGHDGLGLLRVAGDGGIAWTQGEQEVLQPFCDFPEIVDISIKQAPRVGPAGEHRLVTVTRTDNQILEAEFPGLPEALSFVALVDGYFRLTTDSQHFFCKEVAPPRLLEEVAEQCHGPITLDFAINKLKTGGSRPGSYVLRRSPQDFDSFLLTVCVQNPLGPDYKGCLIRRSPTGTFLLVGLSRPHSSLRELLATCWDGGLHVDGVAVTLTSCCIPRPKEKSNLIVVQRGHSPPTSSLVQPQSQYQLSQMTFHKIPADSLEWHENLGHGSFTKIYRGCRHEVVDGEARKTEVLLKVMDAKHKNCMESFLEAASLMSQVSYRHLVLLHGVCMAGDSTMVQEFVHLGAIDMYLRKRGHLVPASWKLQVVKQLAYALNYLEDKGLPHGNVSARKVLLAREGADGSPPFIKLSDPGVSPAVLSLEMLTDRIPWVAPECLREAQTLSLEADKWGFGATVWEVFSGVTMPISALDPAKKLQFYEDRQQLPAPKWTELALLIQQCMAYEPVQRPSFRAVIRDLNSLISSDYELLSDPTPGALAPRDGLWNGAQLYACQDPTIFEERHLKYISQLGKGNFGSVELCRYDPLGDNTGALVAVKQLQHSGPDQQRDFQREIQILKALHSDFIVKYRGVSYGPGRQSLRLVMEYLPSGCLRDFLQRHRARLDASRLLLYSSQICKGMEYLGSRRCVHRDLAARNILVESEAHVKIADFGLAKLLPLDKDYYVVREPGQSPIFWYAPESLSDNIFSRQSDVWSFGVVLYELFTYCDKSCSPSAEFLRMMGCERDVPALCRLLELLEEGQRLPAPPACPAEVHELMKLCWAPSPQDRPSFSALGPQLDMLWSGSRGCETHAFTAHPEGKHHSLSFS
T8 sequence (P07333 20-972): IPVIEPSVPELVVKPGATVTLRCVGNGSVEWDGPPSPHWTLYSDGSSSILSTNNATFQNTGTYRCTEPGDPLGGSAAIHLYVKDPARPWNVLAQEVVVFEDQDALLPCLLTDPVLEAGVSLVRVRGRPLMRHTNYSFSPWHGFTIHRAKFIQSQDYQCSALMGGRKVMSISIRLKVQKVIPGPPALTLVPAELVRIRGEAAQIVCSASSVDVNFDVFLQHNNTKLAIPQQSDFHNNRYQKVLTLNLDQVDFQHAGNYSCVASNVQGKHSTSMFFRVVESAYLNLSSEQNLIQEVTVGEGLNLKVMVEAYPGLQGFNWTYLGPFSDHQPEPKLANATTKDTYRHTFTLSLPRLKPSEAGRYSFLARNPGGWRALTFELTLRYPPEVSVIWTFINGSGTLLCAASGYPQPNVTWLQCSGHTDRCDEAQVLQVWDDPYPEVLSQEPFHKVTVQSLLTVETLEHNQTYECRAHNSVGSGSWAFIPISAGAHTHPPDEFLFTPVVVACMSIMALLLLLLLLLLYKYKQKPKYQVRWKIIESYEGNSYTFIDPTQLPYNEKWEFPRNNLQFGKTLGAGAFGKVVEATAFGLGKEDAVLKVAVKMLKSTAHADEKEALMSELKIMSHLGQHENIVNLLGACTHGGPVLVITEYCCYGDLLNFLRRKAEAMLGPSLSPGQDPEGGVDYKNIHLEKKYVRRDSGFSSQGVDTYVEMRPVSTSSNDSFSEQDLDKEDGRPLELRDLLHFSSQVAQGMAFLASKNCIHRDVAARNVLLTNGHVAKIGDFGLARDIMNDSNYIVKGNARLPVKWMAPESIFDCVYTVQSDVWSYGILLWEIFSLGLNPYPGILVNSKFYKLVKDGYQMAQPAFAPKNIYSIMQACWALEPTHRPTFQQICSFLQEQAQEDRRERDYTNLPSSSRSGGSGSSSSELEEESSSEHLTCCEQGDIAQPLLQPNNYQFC
T4 sequence (Q06187 whole entry): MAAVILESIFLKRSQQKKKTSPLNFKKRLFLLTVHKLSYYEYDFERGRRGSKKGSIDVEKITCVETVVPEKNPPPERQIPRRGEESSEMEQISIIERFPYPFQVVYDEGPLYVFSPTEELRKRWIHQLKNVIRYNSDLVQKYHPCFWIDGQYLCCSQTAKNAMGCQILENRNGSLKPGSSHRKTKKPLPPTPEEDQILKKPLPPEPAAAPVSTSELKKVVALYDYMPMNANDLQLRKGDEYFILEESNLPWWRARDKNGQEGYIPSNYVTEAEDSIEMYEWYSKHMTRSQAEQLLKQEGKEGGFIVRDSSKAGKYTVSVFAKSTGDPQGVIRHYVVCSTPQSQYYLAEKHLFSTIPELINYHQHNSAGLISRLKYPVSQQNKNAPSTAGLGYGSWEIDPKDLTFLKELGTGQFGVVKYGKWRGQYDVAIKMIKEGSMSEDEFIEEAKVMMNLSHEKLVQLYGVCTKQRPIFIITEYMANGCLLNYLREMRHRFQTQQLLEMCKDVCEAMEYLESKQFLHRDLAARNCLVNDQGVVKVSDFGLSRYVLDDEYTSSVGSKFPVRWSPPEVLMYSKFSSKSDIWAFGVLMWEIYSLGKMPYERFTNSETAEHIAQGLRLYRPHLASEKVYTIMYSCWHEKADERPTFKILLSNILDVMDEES
T20 sequence (P36888 with tags, fused parts or gaps INS594R limits assumed): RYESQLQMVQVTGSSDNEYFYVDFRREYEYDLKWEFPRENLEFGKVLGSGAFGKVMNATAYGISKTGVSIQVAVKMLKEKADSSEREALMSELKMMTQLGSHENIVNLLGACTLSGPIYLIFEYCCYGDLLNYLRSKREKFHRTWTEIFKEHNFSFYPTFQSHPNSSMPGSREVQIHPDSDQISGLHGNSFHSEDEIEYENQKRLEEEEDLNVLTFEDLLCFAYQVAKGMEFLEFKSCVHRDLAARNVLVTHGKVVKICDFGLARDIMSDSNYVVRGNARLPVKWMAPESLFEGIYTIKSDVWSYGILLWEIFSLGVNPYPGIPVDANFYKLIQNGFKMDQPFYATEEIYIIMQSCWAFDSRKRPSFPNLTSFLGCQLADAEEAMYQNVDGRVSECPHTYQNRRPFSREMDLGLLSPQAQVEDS
T14 sequence (P06239 whole entry): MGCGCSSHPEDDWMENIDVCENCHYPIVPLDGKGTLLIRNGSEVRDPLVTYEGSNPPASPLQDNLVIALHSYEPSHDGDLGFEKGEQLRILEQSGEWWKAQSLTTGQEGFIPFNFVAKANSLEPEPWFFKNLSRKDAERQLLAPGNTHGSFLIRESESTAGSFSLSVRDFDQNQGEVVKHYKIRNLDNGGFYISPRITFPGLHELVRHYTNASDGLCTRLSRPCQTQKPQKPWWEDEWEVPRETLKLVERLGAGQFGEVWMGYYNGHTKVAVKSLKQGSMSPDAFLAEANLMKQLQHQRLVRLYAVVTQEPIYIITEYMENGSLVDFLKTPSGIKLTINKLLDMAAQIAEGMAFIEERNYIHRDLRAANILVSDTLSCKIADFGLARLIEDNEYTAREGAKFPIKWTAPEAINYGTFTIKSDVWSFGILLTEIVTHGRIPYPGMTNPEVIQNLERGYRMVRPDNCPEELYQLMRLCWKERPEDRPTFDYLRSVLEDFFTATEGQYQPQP

Question: With `Cc1oncc1C(=O)Nc1ccc2cnc(-c3cc(N4CCN(C)CC4)cc(C(F)(F)F)c3)nc2c1` [Compound 7d, 5-methyl-N-(2-(3-(4-methylpiperazin-1-yl)-5-(trifluoromethyl)phenyl)quinazolin-7-yl)isoxazole-4-carboxamide] as the compound, how does the inhibition at 10 µM (AKT1) read?
Answer: 5.48%

Question: What about the inhibition at 10 µM (ALK) of the same compound?
Answer: 17%

Question: And the inhibition at 10 µM (AXL (R499C))?
Answer: 10.1%

Question: And the inhibition at 10 µM (BTK)?
Answer: 17.5%

Question: And the inhibition at 10 µM (c-Src)?
Answer: 14.6%

Question: And the inhibition at 10 µM (CDK4/cyclin D1)?
Answer: 3.01%

Question: And the inhibition at 10 µM (ERK1)?
Answer: 15%

Question: And the inhibition at 10 µM (FMS)?
Answer: 5.49%

Question: And the inhibition at 10 µM (FYN)?
Answer: 19%

Question: What about the inhibition at 10 µM (GSK3b) of the same compound?
Answer: 8.06%

Question: What about the inhibition at 10 µM (JAK3) of the same compound?
Answer: 0.8%

Question: And the inhibition at 10 µM (JNK3)?
Answer: 19.5%

Question: And the inhibition at 10 µM (KDR/VEGFR2)?
Answer: 16.8%

Question: What about the inhibition at 10 µM (LCK) of the same compound?
Answer: 19.7%

Question: And the inhibition at 10 µM (MEK1)?
Answer: 0%

Question: What about the inhibition at 10 µM (PKA) of the same compound?
Answer: 2.5%

Question: What about the inhibition at 10 µM (RIPK3) of the same compound?
Answer: 12.8%

Question: What about the inhibition at 10 µM (RON/MST1R) of the same compound?
Answer: 13.5%

Question: And the inhibition at 10 µM (ROS/ROS1)?
Answer: 14.4%

Question: And the IC50 (FLT3 (F594_R595 ins R))?
Answer: 524 nM

Question: What about the IC50 (FLT3 (F594_R595 ins EY)) of the same compound?
Answer: 495 nM

Question: And the “activity on other kinases in panel (in words)” value [1]?
Answer: almost no activity
